Patent US9163030B2 (priority 2012, dated 2015)
Read-outs that look alike come from different tables or passages of the source.

Columns and labels:
[1] = system: mice; assay: 55° C. warm-water tail-withdrawal test; format: in vivo, mouse; conditions: for Antinociceptive A50 Values: calculated at time of peak effect; for antinociceptive effect: in words; for effect of naloxone pretreatment on antinociceptive effect: naloxone 10 mg/kg ip, -10 min, icv test compound
[2] = target: T1, DOR (Mus musculus, UniProt P32300); assay: [35S]GTP-γ-S binding assay, NG108-15 cells; format: biochemical; conditions: for agonist activity DOR EC50: stimulation of [35S]GTP-γ-S binding, no stim = no stimulation; for functional activity profile at DOR: in words; for Emax: read-out: agonist activity DOR Emax
T1 construct: endogenous in cells; host or cells: NG108-15 neuroblastoma x glioma cells
T1 sequence (P32300 whole entry): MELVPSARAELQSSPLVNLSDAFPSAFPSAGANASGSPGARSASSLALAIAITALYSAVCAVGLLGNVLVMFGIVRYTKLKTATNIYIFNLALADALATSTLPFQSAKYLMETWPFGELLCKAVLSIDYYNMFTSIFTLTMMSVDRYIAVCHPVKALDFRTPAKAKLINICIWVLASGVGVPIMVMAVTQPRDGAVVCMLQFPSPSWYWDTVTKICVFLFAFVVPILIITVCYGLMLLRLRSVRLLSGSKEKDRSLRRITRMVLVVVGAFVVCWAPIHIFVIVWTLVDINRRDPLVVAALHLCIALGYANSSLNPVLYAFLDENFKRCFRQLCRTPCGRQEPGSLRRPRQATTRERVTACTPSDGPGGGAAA

[3] = target: T2, DOR (Homo sapiens, UniProt P41143); assay: Opioid binding assay, displacement of [3H]DADLE, hDOR-CHO cell membranes; conditions: for fold weaker in binding to DOR compared to 14-benzyloxy counterpart: 18a vs 17b, 18d vs 17f
T2 construct: expressed in transfected cells; host or cells: CHO (hDOR-CHO)
T2 sequence (P41143 whole entry): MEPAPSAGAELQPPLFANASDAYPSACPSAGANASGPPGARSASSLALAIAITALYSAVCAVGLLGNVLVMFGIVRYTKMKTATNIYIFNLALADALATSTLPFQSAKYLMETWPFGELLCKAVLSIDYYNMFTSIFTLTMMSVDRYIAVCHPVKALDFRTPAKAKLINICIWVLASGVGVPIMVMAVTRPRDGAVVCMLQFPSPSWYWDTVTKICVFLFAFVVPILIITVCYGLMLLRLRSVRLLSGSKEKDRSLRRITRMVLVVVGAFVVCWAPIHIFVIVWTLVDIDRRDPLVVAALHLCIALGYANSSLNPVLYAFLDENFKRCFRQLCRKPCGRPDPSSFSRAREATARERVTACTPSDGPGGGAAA

[4] = target: T3, KOR (Homo sapiens, UniProt P41145); assay: biochemical; format: binding
T3 construct: expressed in transfected cells; host or cells: CHO (hKOR-CHO)
T3 sequence (P41145 whole entry): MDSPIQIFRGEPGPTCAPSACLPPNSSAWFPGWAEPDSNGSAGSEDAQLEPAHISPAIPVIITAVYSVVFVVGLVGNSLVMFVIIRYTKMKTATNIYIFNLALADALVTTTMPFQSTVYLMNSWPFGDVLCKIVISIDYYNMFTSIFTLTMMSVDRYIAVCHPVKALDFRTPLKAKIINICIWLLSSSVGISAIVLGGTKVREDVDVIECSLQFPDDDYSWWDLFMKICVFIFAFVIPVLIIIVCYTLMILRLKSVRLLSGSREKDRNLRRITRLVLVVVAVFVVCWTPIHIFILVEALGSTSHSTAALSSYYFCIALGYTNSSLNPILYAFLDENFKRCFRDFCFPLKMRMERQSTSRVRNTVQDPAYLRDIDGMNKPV

[5] = target: T4, MOR (Homo sapiens, UniProt P35372); assay: Opioid binding assay, displacement of [3H]DAMGO, hMOR-CHO cell membranes; conditions: for selectivity ratio MOR/DOR: ratio of Ki values, CHO membranes
T4 construct: expressed in transfected cells; host or cells: CHO (hMOR-CHO)
T4 sequence (P35372 whole entry): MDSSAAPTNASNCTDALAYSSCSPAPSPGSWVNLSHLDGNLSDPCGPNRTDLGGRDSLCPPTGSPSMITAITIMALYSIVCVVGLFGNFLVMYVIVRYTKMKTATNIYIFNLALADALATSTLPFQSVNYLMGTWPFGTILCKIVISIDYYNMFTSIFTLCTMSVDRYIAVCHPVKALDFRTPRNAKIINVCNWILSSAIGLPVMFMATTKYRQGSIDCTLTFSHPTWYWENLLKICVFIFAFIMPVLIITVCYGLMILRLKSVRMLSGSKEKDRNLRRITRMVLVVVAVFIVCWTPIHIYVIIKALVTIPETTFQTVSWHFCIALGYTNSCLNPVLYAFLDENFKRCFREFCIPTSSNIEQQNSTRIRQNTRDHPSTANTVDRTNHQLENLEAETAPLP

[6] = target: T4, MOR; assay: [35S]GTP-γ-S binding assay, hMOR-CHO cells; format: biochemical; conditions: for agonist activity MOR EC50: stimulation of [35S]GTP-γ-S binding, no stim = no stimulation; for Emax / agonist activity MOR Emax: normalized to stimulation by DAMGO; for Emax: read-out: agonist activity MOR Emax; for functional activity profile at MOR: in words
[7] = target: T3, KOR; assay: [35S]GTP-γ-S binding assay, hKOR-CHO cells; format: biochemical
[8] = ratio of Ki values, CHO membranes
[9] = stimulation of [35S]GTP-γ-S binding, no stim = no stimulation
[10] = normalized to stimulation by standard agonist
[11] = shift in EC50 of standard agonist

| Structure (SMILES) | melting point | agonist activity DOR EC50 [2] | Ki [3] | selectivity ratio KOR/DOR [4] | Ki ([4]; read-out: Ki ± SEM KOR) | Ki [5] | selectivity ratio MOR/DOR [5] | agonist activity MOR EC50 [6] | functional activity profile at DOR [2] | selectivity ratio KOR/DOR [4, 8] | EC50 [6] | Emax [6] | Ki [4] | EC50 [7] | Emax [7, 10] | further results |
| --- | --- | --- | --- | --- | --- | --- | --- | --- | --- | --- | --- | --- | --- | --- | --- | --- |
| CN1CC[C@]23c4c5ccc(O)c4O[C@H]2[C@@H](O)C=C[C@H]3[C@H]1C5 [morphine, reference compound] | – | – | – | – | – | – | – | – | – | – | – | – | – | – | – | Antinociceptive A50 Values ([1]; icv): 0.43 nmol |
| COC12Cc3cc(-c4ccc(Cl)cc4)cnc3C3Oc4c(O)ccc5c4C31CCN(CC1CC1)C2C5 (stereo not drawn) [Compound 17a, 5′-(4-Chlorophenyl)-17-(cyclopropylmethyl)-6,7-didehydro-4,5α-epoxy-3-hydroxy-14-methoxypyrido[2′,3′:6,7]morphinan] | 170 to 173 °C | no stim^b | 1.95 ± 0.14 nM | 2.8 | 5.37 ± 0.48 nM | 41.9 ± 2.8 nM | 22 | no stim | – | – | – | – | – | – | – | – |
| CN1CCC23c4c5ccc(O)c4OC2c2ncc(-c4ccc(Cl)cc4)cc2CC3(OCC=Cc2ccccc2)C1C5 (stereo not drawn) [Compound 17g, 5′-(4-Chlorophenyl)-14-cinnamyloxy-6,7-didehydro-4,5α-epoxy-3-hydroxy-17-methylpyrido[2′,3′:6,7]morphinan] | – | – | 1.14 ± 0.11 nM | – | 1.55 ± 0.09 nM | 0.41 ± 0.04 nM | 0.36 | – | weak to potent partial agonist activity at DOR | 1.4 | 4.27 nM | 130 ± 3% | – | – | – | Emax [2]: 84%; Antinociceptive A50 Values ([1]; icv): 0.23 nmol; antinociceptive effect ([1]; icv): full antinociceptive effects; effect of naloxone pretreatment on antinociceptive effect [1]: blocked by naloxone pretreatment |
| O=C(OC12Cc3cc(-c4ccc(Cl)cc4)cnc3C3Oc4c(O)ccc5c4C31CCN(CC1CC1)C2C5)c1ccccc1 (stereo not drawn) [Compound 18a, 14-Benzoyloxy-5′-(4-chlorophenyl)-17-(cyclopropylmethyl)-6,7-didehydro-4,5α-epoxy-3-hydroxypyrido[2′,3′: 6,7]morphinan] | 158 to 162 °C | no stim | 87 ± 8 nM | 1.3 | – | 192 ± 21 nM | 2.2 | no stim | – | – | – | – | 117 ± 6 nM | – | – | fold weaker in binding to DOR compared to 14-benzyloxy counterpart [3]: 45 fold; agonist activity KOR EC50 [7, 9]: no stim |
| O=C(Cc1ccccc1)OC12Cc3cc(-c4ccc(Cl)cc4)cnc3C3Oc4c(O)ccc5c4C31CCN(CC1CC1)C2C5 (stereo not drawn) [Compound 18b, 5′-(4-Chlorophenyl)-17-(cyclopropylmethyl)-6,7-didehydro-4,5α-epoxy-3-hydroxy-14-(phenylacetoxy)pyrido[2′,3′:6,7]morphinan] | 118 to 120 °C | no stim | 1.33 ± 0.1 nM | – | 3.1 ± 0.19 nM | 1.04 ± 0.25 nM | 0.78 | no stim | – | 2.3 | – | – | – | 26 ± 9 nM | 34 ± 2% | – |
| O=C(CCc1ccccc1)O[C@@]12Cc3cc(-c4ccc(Cl)cc4)cnc3[C@@H]3Oc4c(O)ccc5c4[C@@]31CCN(CC1CC1)[C@@H]2C5 [Compound 18c, 5′-(4-Chlorophenyl)-17-(cyclopropylmethyl)-6,7-didehydro-4,5α-epoxy-3-hydroxy-14-(3-phenylpropionyloxy)pyrido[2′,3′:6,7]morphinan] | – | no stim | – | – | 12 ± 13 nM | – | 0.62 | no stim | – | 2.9 | – | – | – | – | – | antagonist activity DOR Ke [2, 11]: 1.86 ± 0.21 nM; Ki ([3]; read-out: Ki ± SEM DOR): 4.13 ± 0.29 nM; agonist activity KOR Emax [7, 10]: 25 ± 1%; antagonist activity KOR Ke [7, 11]: 14 ± 2 nM; EC50 ([7]; stimulation of [35S]GTP-γ-S binding, no stim = no stimulation, read-out: agonist activity KOR EC50): 13 ± 4 nM; Ki ([5]; read-out: Ki ± SEM MOR): 2.58 ± 0.12 nM; antagonist activity MOR Ke [6, 11]: 13 ± 1.7 nM |
| Oc1ccc2c3c1OC1c4ncc(-c5ccc(Cl)cc5)cc4C=C4C(C2)N(CC2CC2)CCC431 (stereo not drawn) [Compound 23, 5′-(4-Chlorophenyl)-17-(cyclopropylmethyl)-3-hydroxy-6,7,8,14-tetradehydro-4,5α-epoxypyrido[2′,3′:6,7]morphinan] | 164 to 166 °C | no stim | 2.71 ± 0.11 nM | 2.2 | – | 13 ± 0.4 nM | 4.8 | no stim | – | – | – | – | 5.97 ± 0.19 nM | – | – | agonist activity KOR EC50 [7, 9]: no stim; functional activity profile at MOR [6]: antagonists at MOR |
| CN1CCC23c4c5ccc(O)c4OC2c2ncc(-c4ccc(Cl)cc4)cc2CC3(OC(=O)CCc2ccccc2)C1C5 (stereo not drawn) [Compound 18f, 5′-(4-Chlorophenyl)-6,7-didehydro-4,5α-epoxy-3-hydroxy-17-methyl-14-(3-phenylpropionyloxy)pyrido[2′,3′:6,7]morphinan] | 242 to 244 °C | – | 0.96 ± 0.05 nM | 4.6 | – | 0.94 ± 0.05 nM | 0.98 | – | weak to potent partial agonist activity at DOR | – | 48 nM | > 100% | 4.41 ± 0.23 nM | 136 ± 60 nM | 16 ± 2% | Emax [2]: 59 ± 2%; agonist activity MOR Emax [6]: 105 ± 2% |
| CN1CCC23c4c5ccc(O)c4OC2c2ncc(-c4ccc(Cl)cc4)cc2CC3(OC(=O)c2ccccc2)C1C5 (stereo not drawn) [Compound 18d, 14-Benzoyloxy-5′-(4-chlorophenyl)-6,7-didehydro-4,5α-epoxy-3-hydroxy-17-methylpyrido[2′,3′:6,7]morphinan] | 280 to 284 °C | no stim | 17 ± 1 nM | – | 112 ± 4 nM | 84 ± 7 nM | 4.9 | – | – | 6.6 | 4620 ± 1440 nM | 55 ± 8% | – | – | – | fold weaker in binding to DOR compared to 14-benzyloxy counterpart [3]: 10 fold; agonist activity KOR EC50 [7, 9]: no stim; functional activity profile at MOR [6]: weak MOR agonist potency and partial efficacy |
| CN1CCC23c4c5ccc(O)c4OC2c2ncc(-c4ccc(Cl)cc4)cc2CC3(OCc2ccccc2)C1C5 (stereo not drawn) [Compound 17f, 14-Benzyloxy-5′-(4-chlorophenyl)-6,7-didehydro-4,5α-epoxy-3-hydroxy-17-methylpyrido[2′,3′:6,7]morphinan] | 228 to 232 °C | – | 1.78 ± 0.15 nM | – | 49 ± 6 nM | 4.69 ± 0.17 nM | 2.6 | – | weak to potent partial agonist activity at DOR | 28 | 301 nM | 119 ± 3% | – | 215 ± 54 nM | 32 ± 2% | Emax [2]: 52 ± 1% |
| COC12Cc3cc(-c4ccc(Cl)cc4)cnc3C3Oc4c(O)ccc5c4C31CCN(C)C2C5 (stereo not drawn) [Compound 17e, 5′-(4-Chlorophenyl)-6,7-didehydro-4,5α-epoxy-3-hydroxy-14-methoxy-17-methylpyrido[2′,3′:6,7]morphinan] | 296 to 299 °C (dec.) | no stim | 1.63 ± 0.08 nM | – | 28 ± 1.59 nM | 7.89 ± 0.33 nM | 4.8 | – | antagonist activity at DOR | 17 | 379 nM | 118 ± 4% | – | 633 ± 108 nM | 36 ± 2% | analgesic potency, fold weaker than other tested ligands ([1]; icv): 6 fold; Antinociceptive A50 Values ([1]; icv): 1.44 nmol; antinociceptive effect ([1]; icv): full antinociceptive effects; effect of naloxone pretreatment on antinociceptive effect [1]: blocked by naloxone pretreatment |
| CN1CCC23c4c5ccc(O)c4OC2c2ncc(-c4ccc(Cl)cc4)cc2CC3(OC(=O)Cc2ccccc2)C1C5 (stereo not drawn) [Compound 18e, 5′-(4-Chlorophenyl)-6,7-didehydro-4,5α-epoxy-3-hydroxy-17-methyl-14-(phenylacetoxy)pyrido[2′,3′:6,7]morphinan] | 194 to 196 °C | – | 0.97 ± 0.04 nM | – | 17 ± 1 nM | 1.43 ± 0.08 nM | 1.5 | – | weak to potent partial agonist activity at DOR | 18 | 87 nM | – | – | 109 ± 24 nM | 36 ± 2% | Emax [2]: 27 ± 3%; agonist activity MOR Emax [6]: 122 ± 3% |
| Oc1ccc2c3c1OC1c4ncc(-c5ccc(Cl)cc5)cc4CC4(OCc5ccccc5)C(C2)N(CC2CC2)CCC314 (stereo not drawn) [Compound 17b, 14-(Benzyloxy)-5′-(4-chlorophenyl)-17-(cyclopropylmethyl)-6,7-didehydro-4,5α-epoxy-3-hydroxypyrido[2′,3′:6,7]morphinan] | 130 to 132 °C | no stim | 1.91 ± 0.08 nM | 2.8 | – | 8.42 ± 0.29 nM | 4.4 | no stim | – | – | – | – | 5.33 ± 0.27 nM | 27 ± 9 nM | 15 ± 1% | – |
| Oc1ccc2c3c1OC1c4ncc(-c5ccc(Cl)cc5)cc4CC4(OCC=Cc5ccccc5)C(C2)N(CC2CC2)CCC314 (stereo not drawn) [Compound 17c, 5′-(4-Chlorophenyl)-14-cinnamyloxy-17-(cyclopropylmethyl)-6,7-didehydro-4,5α-epoxy-3-hydroxypyrido[2′,3′:6,7]morphinan] | 138 to 140 °C | no stim | 3.74 ± 0.32 nM | 0.89 | – | 3.03 ± 0.38 nM | 0.81 | no stim | – | – | – | – | 3.31 ± 0.3 nM | – | – | – |
